For this data set, the system named is CCRIS mutagenicity, Ames/micronucleus/aberration tests. Put plainly: CCRIS mutagenicity studies.
Setting [1] is: Test System: AMES SALMONELLA TYPHIMURIUM, Strain/Indicator: TA98, Metabolic Activation: NONE, Method: PREINCUBATION
The mark [2] stands for this setting: Test System: AMES SALMONELLA TYPHIMURIUM, Strain/Indicator: TA100, Metabolic Activation: NONE, Method: PREINCUBATION
Where [3] appears, read: Test System: AMES SALMONELLA TYPHIMURIUM, Strain/Indicator: TA100, Metabolic Activation: NONE, Method: STANDARD PLATE.
The mark [4] stands for this setting: Test System: AMES SALMONELLA TYPHIMURIUM, Strain/Indicator: TA98, Metabolic Activation: NONE, Method: STANDARD PLATE.
The mark [5] stands for this setting: Test System: AMES SALMONELLA TYPHIMURIUM, Strain/Indicator: TA1535, Metabolic Activation: NONE, Method: PREINCUBATION

Molecules are shown by their SMILES. The source made the active and inactive calls. No rule for the calls is given here.

For the compound `Cc1cccs1`, the mutagenic call is “inactive; negative” under setting [1]; “inactive; negative” (Test System: AMES SALMONELLA TYPHIMURIUM, Strain/Indicator: TA98, Metabolic Activation: RAT, LIVER, S-9, AROCLOR 1254, Method: PREINCUBATION); “inactive; negative” under setting [2]; “inactive; negative” (Test System: AMES SALMONELLA TYPHIMURIUM, Strain/Indicator: TA100, Metabolic Activation: RAT, LIVER, S-9, AROCLOR 1254, Method: PREINCUBATION); “inactive; negative” (Test System: AMES SALMONELLA TYPHIMURIUM, Strain/Indicator: TA102, Metabolic Activation: NONE, Method: PREINCUBATION); “inactive; negative” (Test System: AMES SALMONELLA TYPHIMURIUM, Strain/Indicator: TA102, Metabolic Activation: RAT, LIVER, S-9, AROCLOR 1254, Method: PREINCUBATION).

Regarding `N[C@H](CS)C(=O)O`, the mutagenic call runs as follows: (Test System: AMES SALMONELLA TYPHIMURIUM, Strain/Indicator: TA92, Metabolic Activation: NONE, Method: STANDARD PLATE) “inactive; negative”; (Test System: AMES SALMONELLA TYPHIMURIUM, Strain/Indicator: TA92, Metabolic Activation: RAT, KIDNEY, S-9, Method: STANDARD PLATE) “inactive; negative”; (Test System: AMES SALMONELLA TYPHIMURIUM, Strain/Indicator: TA92, Metabolic Activation: RAT, LIVER, S-9, Method: STANDARD PLATE) “inactive; negative”; under setting [3], “inactive; negative”; (Test System: AMES SALMONELLA TYPHIMURIUM, Strain/Indicator: TA100, Metabolic Activation: RAT, KIDNEY, S-9, Method: STANDARD PLATE) “inactive; negative”; (Test System: AMES SALMONELLA TYPHIMURIUM, Strain/Indicator: TA100, Metabolic Activation: RAT, LIVER, S-9, Method: STANDARD PLATE) “inactive; negative”.

In the case of `Nc1ccc(N(c2ccc3ccccc3c2)c2ccc3ccccc3c2)cc1`, the mutagenic call under setting [4] was “inactive; negative”; the mutagenic call (Test System: AMES SALMONELLA TYPHIMURIUM, Strain/Indicator: TA98, Metabolic Activation: S-9, Method: STANDARD PLATE) was “inactive; negative”; the mutagenic call under setting [3] was “inactive; negative”; the mutagenic call (Test System: AMES SALMONELLA TYPHIMURIUM, Strain/Indicator: TA100, Metabolic Activation: S-9, Method: STANDARD PLATE) was “inactive; negative”.

As for `CN[C@@H]1[C@@H](O)[C@@H](O[C@@H]2[C@@H](O)[C@H](O[C@H]3O[C@H](CN)[C@@H](O)[C@H](O)[C@H]3O)[C@@H](N)C[C@H]2NC(=O)[C@@H](O)CN)OC[C@]1(C)O`, the mutagenic call runs as follows: under setting [1], “inactive; negative”; under setting [2], “inactive; negative”; under setting [5], “inactive; negative”; (Test System: E. COLI, Strain/Indicator: WP2 UVRA, Metabolic Activation: NONE, Method: PREINCUBATION) “inactive; negative”.

In the case of `[Na+]`, the mutagenic call is “inactive; negative” (Test System: AMES SALMONELLA TYPHIMURIUM, Strain/Indicator: TA97, Metabolic Activation: HAMSTER, LIVER, S-9, AROCLOR 1254 (10 OR 30%), Method: PREINCUBATION); “inactive; negative” (Test System: AMES SALMONELLA TYPHIMURIUM, Strain/Indicator: TA97, Metabolic Activation: NONE, Method: PREINCUBATION); “inactive; negative” (Test System: AMES SALMONELLA TYPHIMURIUM, Strain/Indicator: TA97, Metabolic Activation: RAT, LIVER, S-9, AROCLOR 1254 (10 OR 30%), Method: PREINCUBATION); “inactive; negative” (Test System: AMES SALMONELLA TYPHIMURIUM, Strain/Indicator: TA98, Metabolic Activation: HAMSTER, LIVER, S-9, AROCLOR 1254 (10 OR 30%), Method: PREINCUBATION); “inactive; negative” under setting [1]; “inactive; negative” (Test System: AMES SALMONELLA TYPHIMURIUM, Strain/Indicator: TA98, Metabolic Activation: RAT, LIVER, S-9, AROCLOR 1254 (10 OR 30%), Method: PREINCUBATION). Besides, the mutagenic call runs as follows: (Test System: AMES SALMONELLA TYPHIMURIUM, Strain/Indicator: TA100, Metabolic Activation: HAMSTER, LIVER, S-9, AROCLOR 1254 (10 OR 30%), Method: PREINCUBATION) “inactive; negative”; under setting [2], “inactive; negative”; (Test System: AMES SALMONELLA TYPHIMURIUM, Strain/Indicator: TA100, Metabolic Activation: RAT, LIVER, S-9, AROCLOR 1254 (10 OR 30%), Method: PREINCUBATION) “inactive; negative”; (Test System: AMES SALMONELLA TYPHIMURIUM, Strain/Indicator: TA1535, Metabolic Activation: HAMSTER, LIVER, S-9, AROCLOR 1254 (10 OR 30%), Method: PREINCUBATION) “inactive; negative”; under setting [5], “inactive; negative”; (Test System: AMES SALMONELLA TYPHIMURIUM, Strain/Indicator: TA1535, Metabolic Activation: RAT, LIVER, S-9, AROCLOR 1254 (10 OR 30%), Method: PREINCUBATION) “inactive; negative”. Further, the mutagenic call is “inactive; negative” (Test System: AMES SALMONELLA TYPHIMURIUM, Strain/Indicator: TA1537, Metabolic Activation: HAMSTER, LIVER, S-9, AROCLOR 1254 (30%), Method: PREINCUBATION); “inactive; negative” (Test System: AMES SALMONELLA TYPHIMURIUM, Strain/Indicator: TA1537, Metabolic Activation: NONE, Method: PREINCUBATION); “inactive; negative” (Test System: AMES SALMONELLA TYPHIMURIUM, Strain/Indicator: TA1537, Metabolic Activation: RAT, LIVER, S-9, AROCLOR 1254 (30%), Method: PREINCUBATION); “inactive; negative” (Test System: CHINESE HAMSTER OVARY, Strain/Indicator: CHO-K1-BH4 (HGPRT), Metabolic Activation: NONE, Method: SUSPENSION/PLATE); “inactive; negative” (Test System: CHINESE HAMSTER OVARY, Strain/Indicator: CHO-K1-BH4 (HGPRT), Metabolic Activation: RAT, LIVER, S-9, AROCLOR, Method: SUSPENSION/PLATE); “active; positive” (Test System: MOUSE LYMPHOMA, Strain/Indicator: L5178Y (TK+/TK-), Metabolic Activation: NONE, Method: SUSPENSION/PLATE).

On to `c1ccc(C(c2ccccc2)c2ccccc2)cc1`, for which the mutagenic call (Test System: AMES SALMONELLA TYPHIMURIUM, Strain/Indicator: TA97, Metabolic Activation: NONE, Method: STANDARD PLATE) is “inactive; negative”; the mutagenic call (Test System: AMES SALMONELLA TYPHIMURIUM, Strain/Indicator: TA97, Metabolic Activation: RAT, LIVER, S-9, AROCLOR 1254, Method: STANDARD PLATE) is “inactive; negative”; the mutagenic call under setting [4] is “inactive; negative”; the mutagenic call (Test System: AMES SALMONELLA TYPHIMURIUM, Strain/Indicator: TA98, Metabolic Activation: RAT, LIVER, S-9, AROCLOR 1254, Method: STANDARD PLATE) was “inactive; negative”; the mutagenic call under setting [3] was “inactive; negative”; the mutagenic call (Test System: AMES SALMONELLA TYPHIMURIUM, Strain/Indicator: TA100, Metabolic Activation: RAT, LIVER, S-9, AROCLOR 1254, Method: STANDARD PLATE) was “inactive; negative”. Also, the mutagenic call (Test System: AMES SALMONELLA TYPHIMURIUM, Strain/Indicator: TA104, Metabolic Activation: NONE, Method: STANDARD PLATE) is “inactive; negative” and the mutagenic call (Test System: AMES SALMONELLA TYPHIMURIUM, Strain/Indicator: TA104, Metabolic Activation: RAT, LIVER, S-9, AROCLOR 1254, Method: STANDARD PLATE) is “inactive; negative”.

As for `CC1(c2ccccc2)CO1` (configuration not stated), the mutagenic call under setting [2] is “active; positive”.

The values are drawn from PubChem BioAssay AID1259407 (Chemical Carcinogenesis Research Information System (CCRIS), 2018).
